# Values quoted from earlier work as cited in PMC10576142, “Intrinsic structural dynamics dictate enzymatic activity and inhibition” (Proceedings of the National Academy of Sciences of the …, 2023).
# Tested on: HDAC8
# Set-up: method as in PMID 24079912
smiles,measurement,value
"CC(/C=C/C(=O)NO)=C\[C@@H](C)C(=O)c1ccc(N(C)C)cc1 [TCSA, trichostatin A]",overall off-rate,0.1 s⁻¹
